# In ChEMBL document CHEMBL1201861, “Genomics of Drug Sensitity in Cancer screening data, Wellcome Trust Sanger Institute”:
# Assays:
# [1] = system: COLO-741; test: cells; assay type: functional, cell-based; conditions: Homo sapiens
# Description: SANGER: Inhibition of human COLO-741 cell growth in a cell viability assay.
# [2] = system: DK-MG; test: cells; assay type: functional, cell-based; conditions: Homo sapiens;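 further: growth inhibition of DK-MG cells, read out with a cell viability assay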
# Description: SANGER: Inhibition of human DK-MG cell growth in a cell viability assay.
# [3] = system: Daoy; test: cells; assay type: functional, cell-based; conditions: Homo sapiens;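 further: daoy cell growth inhibition, read out as cell viability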
# Description: SANGER: Inhibition of human Daoy cell growth in a cell viability assay.
# [4] = system: G-402; test: cells; assay type: functional, cell-based; conditions: Homo sapiens
# Description: SANGER: Inhibition of human G-402 cell growth in a cell viability assay.
# [5] = system: HCC38; test: cells; assay type: functional, cell-based; conditions: Homo sapiens;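 further: cell viability assay on the human HCC38 cell line, with IC50 marking the concentration that inhibits cell growth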
# Description: SANGER: Inhibition of human HCC38 cell growth in a cell viability assay.
# [6] = system: HCC70; test: cells; assay type: functional, cell-based; conditions: Homo sapiens;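 further: cell viability assay measuring how strongly the compound suppresses proliferation of HCC70 cells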
# Description: SANGER: Inhibition of human HCC70 cell growth in a cell viability assay.
# [7] = system: HEC-1; test: cells; assay type: functional, cell-based; conditions: Homo sapiens;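 further: growth inhibition of the cell line, read out with a cell viability assay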
# Description: SANGER: Inhibition of human HEC-1 cell growth in a cell viability assay.
# [8] = system: HuCCT-1; test: cells; assay type: functional, cell-based, HuCCT1; conditions: Homo sapiens;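 further: growth inhibition of HuCCT-1 cells, read out by a cell viability assay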
# Description: SANGER: Inhibition of human HuCCT1 cell growth in a cell viability assay.
# [9] = system: IMR-5; test: cells; assay type: functional, cell-based; conditions: Homo sapiens;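 further: growth inhibition of human IMR-5 cells, read out with a cell viability assay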
# Description: SANGER: Inhibition of human IMR-5 cell growth in a cell viability assay.
# [10] = system: JIYOYE; test: cells; assay type: functional, cell-based; conditions: Homo sapiens
# Description: SANGER: Inhibition of human JiyoyeP-2003 cell growth in a cell viability assay.
# [11] = system: KP-N-YN; test: cells; assay type: functional, cell-based; conditions: Homo sapiens;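 further: growth inhibition of KP-N-YN cells, read out with a cell viability assay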
# Description: SANGER: Inhibition of human KP-N-YN cell growth in a cell viability assay.
# [12] = system: KYSE-520 cell line; test: cells; assay type: functional, cell-based; conditions: Homo sapiens;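 further: growth inhibition of human KYSE-520 cells, read out with a viability assay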
# Description: SANGER: Inhibition of human KYSE-520 cell growth in a cell viability assay.
# [13] = system: KYSE-70 cell line; test: cells; assay type: functional, cell-based; conditions: Homo sapiens;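 further: cell viability assay read-out, with IC50 expressing suppression of KYSE-70 cell growth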
# Description: SANGER: Inhibition of human KYSE-70 cell growth in a cell viability assay.
# [14] = system: L-540; test: cells; assay type: functional, cell-based; conditions: Homo sapiens;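 further: growth inhibition of the human L-540 cell line, read out with a viability assay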
# Description: SANGER: Inhibition of human L-540 cell growth in a cell viability assay.
# [15] = system: LB647-SCLC; test: cells; assay type: functional, cell-based; conditions: Homo sapiens;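 further: cell growth inhibition, read out by a viability assay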
# Description: SANGER: Inhibition of human LB647-SCLC cell growth in a cell viability assay.
# [16] = system: LCLC-103H cell line; test: cells; assay type: functional, cell-based; conditions: Homo sapiens
# Description: SANGER: Inhibition of human LCLC-103H cell growth in a cell viability assay.
# [17] = system: LP-1; test: cells; assay type: functional, cell-based; conditions: Homo sapiens;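 further: growth inhibition of human LP-1 cells, with the read-out taken from a cell viability assay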
# Description: SANGER: Inhibition of human LP-1 cell growth in a cell viability assay.
# [18] = system: M14; test: cells; assay type: functional, cell-based; conditions: Homo sapiens;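 further: growth inhibition of M14 cells, read out with a cell viability assay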
# Description: SANGER: Inhibition of human M14 cell growth in a cell viability assay.
# [19] = system: MC-IXC; test: cells; assay type: functional, cell-based; conditions: Homo sapiens;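 further: growth inhibition of MC-IXC cells, read out with a cell viability assay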
# Description: SANGER: Inhibition of human MC-IXC cell growth in a cell viability assay.
# [20] = system: MCF7; test: cells; assay type: functional, cell-based; conditions: Homo sapiens;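 further: growth inhibition of human MCF7 cells, read out with a cell viability assay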
# Description: SANGER: Inhibition of human MCF7 cell growth in a cell viability assay.
# [21] = system: MDA-MB-157; test: cells; assay type: functional, cell-based; conditions: Homo sapiens
# Description: SANGER: Inhibition of human MDA-MB-157 cell growth in a cell viability assay.
# [22] = system: MDA-MB-175-VII; test: cells; assay type: functional, cell-based; conditions: Homo sapiens
# [23] = system: MDA-MB-231; test: cells; assay type: functional, cell-based; conditions: Homo sapiens
# Description: SANGER: Inhibition of human MDA-MB-231 cell growth in a cell viability assay.
# [24] = system: MG-63; test: cells; assay type: functional, cell-based; conditions: Homo sapiens;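 further: growth inhibition of human MG-63 cells, read out with a cell viability assay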
# Description: SANGER: Inhibition of human MG-63 cell growth in a cell viability assay.
# [25] = system: MIA PaCa-2; test: cells; assay type: functional, cell-based; conditions: Homo sapiens;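 further: growth inhibition of MIA PaCa-2 cells, read out with a cell viability assay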
# Description: SANGER: Inhibition of human MIA-PaCa-2 cell growth in a cell viability assay.
# [26] = system: MKN-45; test: cells; assay type: functional, cell-based; conditions: Homo sapiens;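 further: growth inhibition of human MKN-45 cells, measured with a cell viability assay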
# Description: SANGER: Inhibition of human MKN45 cell growth in a cell viability assay.
# [27] = system: NALM-6; test: cells; assay type: functional, cell-based; conditions: Homo sapiens;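 further: growth inhibition of NALM-6 cells, read out with a cell viability assay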
# Description: SANGER: Inhibition of human NALM-6 cell growth in a cell viability assay.
# [28] = system: NCI-H1417; test: cells; assay type: functional, cell-based; conditions: Homo sapiens;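 further: human NCI-H1417 cells, growth inhibition determined with a cell viability readout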
# Description: SANGER: Inhibition of human NCI-H1417 cell growth in a cell viability assay.
# [29] = system: NCI-H1522; test: cells; assay type: functional, cell-based; conditions: Homo sapiens;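 further: growth inhibition of NCI-H1522 cells, read out with a cell viability assay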
# Description: SANGER: Inhibition of human NCI-H1522 cell growth in a cell viability assay.
# [30] = system: NCI-H2122; test: cells; assay type: functional, cell-based; conditions: Homo sapiens;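 further: growth inhibition of the cells, read out with a cell viability assay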
# Description: SANGER: Inhibition of human NCI-H2122 cell growth in a cell viability assay.
# [31] = system: NCI-H441; test: cells; assay type: functional, cell-based; conditions: Homo sapiens;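 further: growth inhibition of NCI-H441 cells, read out with a cell viability assay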
# Description: SANGER: Inhibition of human NCI-H441 cell growth in a cell viability assay.
# [32] = system: NCI-H522; test: cells; assay type: functional, cell-based; conditions: Homo sapiens;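 further: cell viability assay measuring growth inhibition of human NCI-H522 cells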
# Description: SANGER: Inhibition of human NCI-H522 cell growth in a cell viability assay.
# [33] = system: NCI-H64; test: cells; assay type: functional, cell-based; conditions: Homo sapiens;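 further: growth inhibition of NCI-H64 cells, read out with a cell viability assay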
# Description: SANGER: Inhibition of human NCI-H64 cell growth in a cell viability assay.
# [34] = system: NCI-H810; test: cells; assay type: functional, cell-based; conditions: Homo sapiens;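 further: IC50 reflects inhibition of cancer cell line growth, read out with a cell viability assay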
# Description: SANGER: Inhibition of human NCI-H810 cell growth in a cell viability assay.
# [35] = system: OAW-28; test: cells; assay type: functional, cell-based; conditions: Homo sapiens;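 further: growth inhibition of OAW-28 cells, read out with a cell viability assay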
# Description: SANGER: Inhibition of human OAW-28 cell growth in a cell viability assay.
# [36] = system: OVCAR-3; test: cells; assay type: functional, cell-based; conditions: Homo sapiens;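 further: growth inhibition of human OVCAR-3 cells, determined by a cell viability assay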
# Description: SANGER: Inhibition of human OVCAR-3 cell growth in a cell viability assay.
# [37] = system: OVCAR-8; test: cells; assay type: functional, cell-based; conditions: Homo sapiens;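 further: growth inhibition of human OVCAR-8 cells, read out by a cell viability assay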
# Description: SANGER: Inhibition of human OVCAR-8 cell growth in a cell viability assay.
# [38] = system: P12-Ichikawa; test: cells; assay type: functional, cell-based; conditions: Homo sapiens
# [39] = system: PC-3; test: cells; assay type: functional, cell-based; conditions: Homo sapiens;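 further: cell viability assay measuring growth inhibition of PC-3 cells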
# Description: SANGER: Inhibition of human PC-3 cell growth in a cell viability assay.
# [40] = system: PFSK-1; test: cells; assay type: functional, cell-based; conditions: Homo sapiens;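 further: cell viability assay measuring how strongly compounds suppress growth of human PFSK-1 cells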
# Description: SANGER: Inhibition of human PFSK-1 cell growth in a cell viability assay.
# [41] = system: RPMI-2650; test: cells; assay type: functional, cell-based; conditions: Homo sapiens
# Description: SANGER: Inhibition of human RPMI-2650 cell growth in a cell viability assay.
# [42] = system: RT-112; test: cells; assay type: functional, cell-based; conditions: Homo sapiens
# Description: SANGER: Inhibition of human RT-112 cell growth in a cell viability assay.
# [43] = system: RVH-421; test: cells; assay type: functional, cell-based; conditions: Homo sapiens
# Description: SANGER: Inhibition of human RVH-421 cell growth in a cell viability assay.
# [44] = system: S-117; test: cells; assay type: functional, cell-based; conditions: Homo sapiens
# Description: SANGER: Inhibition of human S-117 cell growth in a cell viability assay.
# [45] = system: SK-LU-1; test: cells; assay type: functional, cell-based; conditions: Homo sapiens;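 further: cell viability assay measuring growth inhibition of human SK-LU-1 cells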
# Description: SANGER: Inhibition of human SK-LU-1 cell growth in a cell viability assay.
# [46] = system: SK-MES-1; test: cells; assay type: functional, cell-based; conditions: Homo sapiens;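 further: growth inhibition of human SK-MES-1 cells, read out with a cell viability assay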
# Description: SANGER: Inhibition of human SK-MES-1 cell growth in a cell viability assay.
# [47] = system: SW1573; test: cells; assay type: functional, cell-based; conditions: Homo sapiens;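 further: growth inhibition of SW1573 cells, read out with a cell viability assay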
# Description: SANGER: Inhibition of human SW1573 cell growth in a cell viability assay.
# [48] = system: SW756; test: cells; assay type: functional, cell-based; conditions: Homo sapiens;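 further: growth inhibition of human SW756 cells, read out with a cell viability assay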
# Description: SANGER: Inhibition of human SW756 cell growth in a cell viability assay.
# [49] = system: SAOS-2; test: cells; assay type: functional, cell-based; conditions: Homo sapiens;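 further: growth inhibition of human Saos-2 cells determined by a cell viability assay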
# Description: SANGER: Inhibition of human Saos-2 cell growth in a cell viability assay.
# [50] = system: TCC-SUP; test: cells; assay type: functional, cell-based; conditions: Homo sapiens;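 further: growth inhibition of TCC-SUP cells, read out with a cell viability assay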
# Description: SANGER: Inhibition of human TCCSUP cell growth in a cell viability assay.
# [51] = system: A204; test: cells; assay type: functional, cell-based; conditions: Homo sapiens;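 further: growth inhibition of human A204 cells, read out with a cell viability assay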
# Description: SANGER: Inhibition of human A204 cell growth in a cell viability assay.
# [52] = system: AN3-CA; test: cells; assay type: functional, cell-based; conditions: Homo sapiens;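 further: growth inhibition of human AN3-CA cells measured by a cell viability assay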
# Description: SANGER: Inhibition of human AN3-CA cell growth in a cell viability assay.
# [53] = system: ASPC1; test: cells; assay type: functional, cell-based; conditions: Homo sapiens;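 further: growth inhibition of AsPC-1 cells, read out with a cell viability assay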
# Description: SANGER: Inhibition of human AsPC-1 cell growth in a cell viability assay.
# [54] = system: BL-70; test: SANGER: Inhibition of human BL-70 cell growth in a cell viability assay.; assay type: functional, cell-based
# [55] = system: C32; test: cells; assay type: functional, cell-based; conditions: Homo sapiens;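 further: cell viability assay, with IC50 reflecting inhibition of C32 cell growth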
# Description: SANGER: Inhibition of human C32 cell growth in a cell viability assay.
# [56] = system: CAKI-1; test: cells; assay type: functional, cell-based; conditions: Homo sapiens;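 further: growth inhibition of CAKI-1 cells, measured by a cell viability assay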
# Description: SANGER: Inhibition of human CAKI-1 cell growth in a cell viability assay.
# [57] = system: CAL-148; test: cells; assay type: functional, cell-based; conditions: Homo sapiens
# Description: SANGER: Inhibition of human CAL-148 cell growth in a cell viability assay.
# [58] = system: CAL-85-1; test: cells; assay type: functional, cell-based; conditions: Homo sapiens;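 further: growth inhibition of human CAL-85-1 cells, read out with a cell viability assay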
# Description: SANGER: Inhibition of human CAL-85-1 cell growth in a cell viability assay.
# [59] = system: UO-31; test: cells; assay type: functional, cell-based; conditions: Homo sapiens
# Description: SANGER: Inhibition of human U031 cell growth in a cell viability assay.
# [60] = system: UACC-62; test: cells; assay type: functional, cell-based; conditions: Homo sapiens;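 further: growth inhibition of human UACC-62 cells, read out by a cell viability assay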
# Description: SANGER: Inhibition of human UACC-62 cell growth in a cell viability assay.
# [61] = system: CAMA-1; test: cells; assay type: functional, cell-based; conditions: Homo sapiens;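 further: growth inhibition of CAMA-1 cells, read out with a cell viability assay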
# Description: SANGER: Inhibition of human CAMA-1 cell growth in a cell viability assay.
# [62] = system: CESS; test: SANGER: Inhibition of human CESS cell growth in a cell viability assay.; assay type: functional, cell-based
# [63] = system: CHP-212; test: cells; assay type: functional, cell-based; conditions: Homo sapiens
# Description: SANGER: Inhibition of human CHP-212 cell growth in a cell viability assay.
# [64] = system: CMK; test: cells; assay type: functional, cell-based; conditions: Homo sapiens;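 further: growth inhibition of CMK cells, read out as cell viability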
# Description: SANGER: Inhibition of human CMK cell growth in a cell viability assay.
structure (smiles),measurement,setting,value
N#C/C(=C1/Nc2ccccc2S1)c1ccnc(NCCc2cccnc2)n1,IC50,[1],> 8 µM
same,IC50,[2],> 8 µM
same,IC50,[3],> 8 µM
same,IC50,[4],> 8 µM
same,IC50,[5],5.3 µM
same,IC50,[6],> 8 µM
same,IC50,[7],> 8 µM
same,IC50,[8],7.65 µM
same,IC50,[9],> 8 µM
same,IC50,[10],> 8 µM
same,IC50,[11],> 8 µM
same,IC50,[12],> 8 µM
same,IC50,[13],4.06 µM
same,IC50,[14],> 8 µM
same,IC50,[15],> 8 µM
same,IC50,[16],> 8 µM
same,IC50,[17],> 8 µM
same,IC50,[18],> 8 µM
same,IC50,[19],> 8 µM
same,IC50,[20],1.5 µM
same,IC50,[21],7.07 µM
same,IC50,[22],> 8 µM
same,IC50,[23],> 8 µM
same,IC50,[24],3.29 µM
same,IC50,[25],0.976 µM
same,IC50,[26],> 8 µM
same,IC50,[27],4.49 µM
same,IC50,[28],> 8 µM
same,IC50,[29],> 8 µM
same,IC50,[30],0.672 µM
same,IC50,[31],5.48 µM
same,IC50,[32],4.93 µM
same,IC50,[33],> 8 µM
same,IC50,[34],5.34 µM
same,IC50,[35],> 8 µM
same,IC50,[36],> 8 µM
same,IC50,[37],> 8 µM
same,IC50,[38],> 8 µM
same,IC50,[39],> 8 µM
same,IC50,[40],> 8 µM
same,IC50,[41],2.58 µM
same,IC50,[42],> 8 µM
same,IC50,[43],> 8 µM
same,IC50,[44],6.94 µM
same,IC50,[45],4.64 µM
same,IC50,[46],3.44 µM
same,IC50,[47],> 8 µM
same,IC50,[48],> 8 µM
same,IC50,[49],> 8 µM
same,IC50,[50],> 8 µM
same,IC50,[51],7.34 µM
same,IC50,[52],2.59 µM
same,IC50,[53],> 8 µM
same,IC50,[54],4.85 µM
same,IC50,[55],> 8 µM
same,IC50,[56],6.48 µM
same,IC50,[57],> 8 µM
same,IC50,[58],1.5 µM
same,IC50,[59],7.2 µM
same,IC50,[60],> 8 µM
same,IC50,[61],> 8 µM
same,IC50,[62],> 8 µM
same,IC50,[63],> 8 µM
same,IC50,[64],2.75 µM
C/C(O)=C(\C#N)C(=O)Nc1cc(Br)ccc1Br,IC50,[1],> 16 µM
same,IC50,[2],> 16 µM
same,IC50,[3],> 16 µM
same,IC50,[4],> 16 µM
same,IC50,[5],> 16 µM
same,IC50,[6],> 16 µM
same,IC50,[7],> 16 µM
same,IC50,[8],> 16 µM
same,IC50,[9],> 16 µM
same,IC50,[10],> 16 µM
same,IC50,[11],> 16 µM
same,IC50,[12],> 16 µM
same,IC50,[13],> 16 µM
same,IC50,[14],> 16 µM
same,IC50,[15],> 16 µM
same,IC50,[16],> 16 µM
same,IC50,[17],> 16 µM
same,IC50,[18],> 16 µM
same,IC50,[19],> 16 µM
same,IC50,[20],> 16 µM
same,IC50,[21],> 16 µM
same,IC50,[22],> 16 µM
same,IC50,[23],> 16 µM
same,IC50,[24],> 16 µM
same,IC50,[25],> 16 µM
same,IC50,[26],> 16 µM
same,IC50,[27],> 16 µM
same,IC50,[28],> 16 µM
same,IC50,[29],> 16 µM
same,IC50,[30],> 16 µM
same,IC50,[31],> 16 µM
same,IC50,[32],> 16 µM
same,IC50,[33],> 16 µM
same,IC50,[34],> 16 µM
same,IC50,[35],> 16 µM
same,IC50,[36],> 16 µM
same,IC50,[37],> 16 µM
same,IC50,[38],> 16 µM
same,IC50,[39],> 16 µM
same,IC50,[40],> 16 µM
same,IC50,[41],> 16 µM
same,IC50,[42],> 16 µM
same,IC50,[43],> 16 µM
same,IC50,[44],> 16 µM
same,IC50,[45],> 16 µM
same,IC50,[46],> 16 µM
same,IC50,[47],> 16 µM
same,IC50,[48],> 16 µM
same,IC50,[49],> 16 µM
same,IC50,[50],> 16 µM
same,IC50,[51],> 16 µM
same,IC50,[52],> 16 µM
same,IC50,[53],> 16 µM
same,IC50,[54],> 16 µM
same,IC50,[55],> 16 µM
same,IC50,[56],> 16 µM
same,IC50,[57],> 16 µM
same,IC50,[58],> 16 µM
same,IC50,[59],> 16 µM
same,IC50,[60],> 16 µM
same,IC50,[61],> 16 µM
same,IC50,[62],> 16 µM
same,IC50,[63],> 16 µM
same,IC50,[64],> 16 µM
